Literature values in patent US11134689B2, “Natural volatile plant oils to repel arthropods” (Shepard Farms, LLC, priority 2011, dated 2021).

Tested on: fruit fly (Ceratitis capitata)
Conditions: in vivo

In the case of `CC12CCC(CC1)C(C)(C)O2` [1,8-cineole], the insecticidal activity is given as “high insecticidal activity”.
